Assay results taken from article PMC7955776 (Investigational new drugs, 2020).
Several values for one entry are separate records, joined by “and”; a condition that tells them apart may be missing. Equal entries are not always repeated.

Test: Safety: adverse events graded by CTCAE v4.0
Type: in vivo, human
Conditions: with paclitaxel and carboplatin

CC(C)(C(=O)NCC(F)(F)C(F)(F)F)C(=O)N[C@@H]1C(=O)Nc2ccccc2-c2ccccc21 [RO4929097]
SAE: depression (N = 1): 7% | SAE: glucose intolerance (N = 1): 7% | SAE: hyperglycemia (N = 1): 7% | SAE: leukopenia (N = 1): 7% | SAE: neutropenia (N = 1): 7% | SAE: thrombocytopenia (N = 1): 7% | SAE: wound dehiscence (N = 1): 7% | SAE: wound infection (N = 1): 7% | SAE: hypertension (N = 3): 21% | Serious adverse events (SAEs) reported, number (duration of study): Eleven | Alopecia, All Grades (treatment-related AE, N = 14): 9 (64) N (%) | Alopecia, Grade 1 (treatment-related AE, N = 14): 3 (21) N (%) | Alopecia, Grade 2 (treatment-related AE, N = 14): 6 (43) N (%) | Alopecia, Grade 3 (treatment-related AE, N = 14): 0 (0) N (%) | Alopecia, Grade 4 (treatment-related AE, N = 14): 0 (0) N (%) | Anemia, All Grades (treatment-related AE, N = 14): 12 (86) N (%) | Anemia, Grade 1 (treatment-related AE, N = 14): 0 (0) N (%) | Anemia, Grade 2 (treatment-related AE, N = 14): 8 (57) N (%) | Anemia, Grade 3 (treatment-related AE, N = 14): 4 (29%) N (%) and 4 (29) N (%) | Anemia, Grade 4 (treatment-related AE, N = 14): 0 (0) N (%) | Anorexia, All Grades (treatment-related AE, N = 14): 9 (64) N (%) | Anorexia, Grade 1 (treatment-related AE, N = 14): 8 (57) N (%) | Anorexia, Grade 2 (treatment-related AE, N = 14): 1 (7) N (%) | Anorexia, Grade 3 (treatment-related AE, N = 14): 0 (0) N (%) | Anorexia, Grade 4 (treatment-related AE, N = 14): 0 (0) N (%) | Constipation, All Grades (treatment-related AE, N = 14): 10 (71) N (%) | Constipation, Grade 1 (treatment-related AE, N = 14): 10 (71) N (%) | Constipation, Grade 2 (treatment-related AE, N = 14): 0 (0) N (%) | Constipation, Grade 3 (treatment-related AE, N = 14): 0 (0) N (%) | Constipation, Grade 4 (treatment-related AE, N = 14): 0 (0) N (%) | Dyspnea, All Grades (treatment-related AE, N = 14): 10 (71) N (%) | Dyspnea, Grade 1 (treatment-related AE, N = 14): 7 (50) N (%) | Dyspnea, Grade 2 (treatment-related AE, N = 14): 3 (21) N (%) | Dyspnea, Grade 3 (treatment-related AE, N = 14): 0 (0) N (%) | Dyspnea, Grade 4 (treatment-related AE, N = 14): 0 (0) N (%) | Elevated aspartate aminotransferase, All Grades (treatment-related AE, N = 14): 6 (43) N (%) | Elevated aspartate aminotransferase, Grade 1 (treatment-related AE, N = 14): 6 (43) N (%) | Elevated aspartate aminotransferase, Grade 2 (treatment-related AE, N = 14): 0 (0) N (%) | Elevated aspartate aminotransferase, Grade 3 (treatment-related AE, N = 14): 0 (0) N (%) | Elevated aspartate aminotransferase, Grade 4 (treatment-related AE, N = 14): 0 (0) N (%) | Epistaxis, All Grades (treatment-related AE, N = 14): 8 (57) N (%) | Epistaxis, Grade 1 (treatment-related AE, N = 14): 7 (50) N (%) | Epistaxis, Grade 2 (treatment-related AE, N = 14): 1 (7) N (%) | Epistaxis, Grade 3 (treatment-related AE, N = 14): 0 (0) N (%) | Epistaxis, Grade 4 (treatment-related AE, N = 14): 0 (0) N (%) | Fatigue, All Grades (treatment-related AE, N = 14): 11 (79) N (%) | Fatigue, Grade 1 (treatment-related AE, N = 14): 5 (36) N (%) | Fatigue, Grade 2 (treatment-related AE, N = 14): 5 (36) N (%) | Fatigue, Grade 3 (treatment-related AE, N = 14): 1 (7%) N (%) and 1 (7) N (%) | Fatigue, Grade 4 (treatment-related AE, N = 14): 0 (0) N (%) | Headache, All Grades (treatment-related AE, N = 14): 9 (64) N (%) | Headache, Grade 1 (treatment-related AE, N = 14): 8 (57) N (%) | Headache, Grade 2 (treatment-related AE, N = 14): 1 (7) N (%) | Headache, Grade 3 (treatment-related AE, N = 14): 0 (0) N (%) | Headache, Grade 4 (treatment-related AE, N = 14): 0 (0) N (%) | Hyperglycemia, All Grades (treatment-related AE, N = 14): 7 (50) N (%) | Hyperglycemia, Grade 1 (treatment-related AE, N = 14): 7 (50) N (%) | Hyperglycemia, Grade 2 (treatment-related AE, N = 14): 0 (0) N (%) | Hyperglycemia, Grade 3 (treatment-related AE, N = 14): 0 (0) N (%) | Hyperglycemia, Grade 4 (treatment-related AE, N = 14): 0 (0) N (%) | Hypertension, All Grades (treatment-related AE, N = 14): 8 (57) N (%) | Hypertension, Grade 1 (treatment-related AE, N = 14): 4 (29) N (%) | Hypertension, Grade 2 (treatment-related AE, N = 14): 3 (21) N (%) | Hypertension, Grade 3 (treatment-related AE, N = 14): 1 (7%) N (%) and 1 (7) N (%) | Hypertension, Grade 4 (treatment-related AE, N = 14): 0 (0) N (%) | Leukopenia, All Grades (treatment-related AE, N = 14): 13 (93) N (%) | Leukopenia, Grade 1 (treatment-related AE, N = 14): 1 (7) N (%) | Leukopenia, Grade 2 (treatment-related AE, N = 14): 7 (50) N (%) | Leukopenia, Grade 3 (treatment-related AE, N = 14): 5 (36) N (%) | Leukopenia, Grade 4 (treatment-related AE, N = 14): 0 (0) N (%) | Lymphocytopenia, All Grades (treatment-related AE, N = 14): 12 (86) N (%)
